Reference: ChEMBL document CHEMBL3727350, “Agents and methods for treating ischemic and other diseases” (2014)
The source made the active and inactive calls. No cut-off for these calls is given here.

target: Transient receptor potential cation channel subfamily M member 7 (Mus musculus) (UniProt Q923J1); assay: Inhibition of Tet-induced Flag-tagged mouse TRPM7 expressed in HEK293 cells assessed as inhibition of channel-mediated cell death in presence of Mg2+ incubated for 24 to 48 hrs by propidium iodide uptake assay; format: cell-based; design: concentration or dose not given beside the values; conditions: not given
Sequence (Q923J1 whole entry): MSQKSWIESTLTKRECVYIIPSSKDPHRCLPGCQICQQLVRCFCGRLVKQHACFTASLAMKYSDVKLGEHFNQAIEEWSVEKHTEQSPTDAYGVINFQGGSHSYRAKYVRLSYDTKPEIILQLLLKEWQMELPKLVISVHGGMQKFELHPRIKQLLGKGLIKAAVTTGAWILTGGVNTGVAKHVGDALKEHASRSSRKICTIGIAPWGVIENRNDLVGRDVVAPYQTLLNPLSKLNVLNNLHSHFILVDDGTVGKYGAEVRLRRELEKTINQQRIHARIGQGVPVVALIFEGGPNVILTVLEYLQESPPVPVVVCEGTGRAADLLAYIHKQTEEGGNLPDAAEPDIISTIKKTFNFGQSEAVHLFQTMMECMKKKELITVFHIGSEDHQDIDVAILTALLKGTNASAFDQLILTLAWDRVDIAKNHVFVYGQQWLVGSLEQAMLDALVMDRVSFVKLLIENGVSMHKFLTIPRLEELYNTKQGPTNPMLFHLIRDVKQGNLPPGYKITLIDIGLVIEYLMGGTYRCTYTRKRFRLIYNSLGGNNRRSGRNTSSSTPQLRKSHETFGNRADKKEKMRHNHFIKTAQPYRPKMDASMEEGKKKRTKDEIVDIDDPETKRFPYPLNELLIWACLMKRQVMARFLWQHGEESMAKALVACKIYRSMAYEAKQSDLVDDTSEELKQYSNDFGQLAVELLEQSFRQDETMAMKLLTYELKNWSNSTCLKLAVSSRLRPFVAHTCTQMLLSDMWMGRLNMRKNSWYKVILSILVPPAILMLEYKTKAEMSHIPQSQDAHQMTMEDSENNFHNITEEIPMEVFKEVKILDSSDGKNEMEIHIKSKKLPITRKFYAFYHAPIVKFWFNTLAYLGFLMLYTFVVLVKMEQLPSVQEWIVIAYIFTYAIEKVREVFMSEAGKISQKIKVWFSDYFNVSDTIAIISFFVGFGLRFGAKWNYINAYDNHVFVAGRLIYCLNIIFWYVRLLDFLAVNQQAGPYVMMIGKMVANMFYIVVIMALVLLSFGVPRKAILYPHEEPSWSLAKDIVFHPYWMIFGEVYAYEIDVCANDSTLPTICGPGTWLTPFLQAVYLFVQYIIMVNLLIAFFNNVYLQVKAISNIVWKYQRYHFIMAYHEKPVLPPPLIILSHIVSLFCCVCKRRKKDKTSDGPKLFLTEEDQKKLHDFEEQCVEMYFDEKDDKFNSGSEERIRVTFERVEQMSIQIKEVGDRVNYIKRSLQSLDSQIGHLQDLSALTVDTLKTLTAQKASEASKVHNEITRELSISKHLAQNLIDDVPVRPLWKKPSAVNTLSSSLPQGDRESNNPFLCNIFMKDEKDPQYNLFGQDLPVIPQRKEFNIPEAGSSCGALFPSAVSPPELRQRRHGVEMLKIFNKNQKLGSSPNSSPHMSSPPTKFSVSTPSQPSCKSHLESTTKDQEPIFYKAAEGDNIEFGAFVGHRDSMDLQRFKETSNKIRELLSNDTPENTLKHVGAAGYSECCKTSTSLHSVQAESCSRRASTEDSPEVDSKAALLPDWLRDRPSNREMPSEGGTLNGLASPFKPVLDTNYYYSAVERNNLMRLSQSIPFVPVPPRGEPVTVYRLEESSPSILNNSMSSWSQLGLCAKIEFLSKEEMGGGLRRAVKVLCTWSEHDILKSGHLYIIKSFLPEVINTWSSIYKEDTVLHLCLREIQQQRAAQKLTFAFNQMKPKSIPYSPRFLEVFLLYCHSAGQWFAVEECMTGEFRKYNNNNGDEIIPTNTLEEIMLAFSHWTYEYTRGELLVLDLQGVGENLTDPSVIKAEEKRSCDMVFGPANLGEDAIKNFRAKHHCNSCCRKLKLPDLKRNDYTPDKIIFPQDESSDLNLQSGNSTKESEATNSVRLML

Compound | inhibition
COc1cc(/C=C/C(=O)N2CCC=CC2=O)cc(OC)c1OC | Dose-dependent effect
CC[C@H]1CN2CCc3cc(OC)c(OC)cc3[C@@H]2C[C@@H]1C[C@H]1NCCc2cc(OC)c(OC)cc21 | Active
COc1cc2c(c(OC)c1OC)-c1ccc(OC)c(=O)cc1[C@@H](NC(C)=O)CC2 | Active
Cc1ccc(NS(=O)(=O)c2ccc(-c3csc(C)n3)s2)c(C)c1 | Active

same assay, conditions: concentration not given here

Compound | inhibition [%]
Brc1ccc2nc(C34CC5CC(CC(C5)C3)C4)cn2c1 | 60
CC(C)(C)c1ccc(NC(=O)/C=C/C(=O)O)cc1 | < 30
CCOC(=O)CCc1cc(/N=C/c2cc(Cl)cc(Cl)c2O)c(O)c(/N=C/c2cc(Cl)cc(Cl)c2O)c1 | 50
O=c1oc2cc(O)ccc2c(O)c1Cc1ccc(Cl)c(Cl)c1 | 80
CC(=O)OC[C@H]1OC(OC(C)(C)C)[C@H](OC(C)=O)[C@@H](OC(C)=O)[C@@H]1OC(C)=O (stereo partly drawn) | 40
Cc1cc(S(=O)(=O)Cc2noc(-c3c(C)noc3C)n2)c(C)cc1Cl | 40
C/C=N/N(c1ccccc1)c1cc(-c2ccc(OC)cc2)c(C#N)c(=O)[nH]1 | 60
O=C(Nc1cccc(C(F)(F)F)c1)Nc1nnc(C2CC2)s1 | 50
CCOC(=O)C(Nc1ccccc1)C(=O)OCC | 30
CSC1=N/C(=C\c2ccc(Cl)cc2)C(=O)N1Cc1ccco1 | 60
CCCCCCCCCc1c(O)c2ccccc2[nH]c1=O | 60
O=C(Nc1ccc(Oc2ccccc2)cc1)Nc1cccs1 | 70
Cc1c(C)c(C)c(CO/N=C/c2cccs2)c(C)c1C | 70
CCCCCCCC(=O)NC1=NC2c3ccc(OC)cc3CCC2S1 (stereo not drawn) | 70
CS(=O)(=NS(=O)(=O)c1ccc(Cl)cc1Cl)c1ccc(Cl)cc1 (stereo not drawn) | < 30
CCOC(=O)c1nc(COc2ccccc2Cl)[nH]c(=O)c1C | < 30
Cc1cc2c(cc1C)CSC(C)(c1ccc(F)cc1)SC2 | < 30
O=S1(=O)CC=C(S(=O)(=O)c2ccccc2)C1 | < 30
C=C(C(=O)OC)C(O)c1ccc(Br)cc1 (stereo not drawn) | 60
Cc1onc(-c2ccccc2)c1-c1cnn(S(=O)(=O)c2ccc(Cl)cc2)c1 | 30
COc1cc2c(cc1OC)C(C(=O)c1sc3ccccc3c1Cl)=NCC2 | 80
NC(=O)C1CCN(CCS(=O)(=O)c2ccccc2)CC1 | 30

Compound | inhibition [%]
CC(=O)Nc1ccc(S(=O)(=O)Nc2ccccc2Oc2ccc(Cl)cc2Cl)cc1 | 80
CC[n+]1c(/C=C/c2ccc(OC)cc2)ccc2ccccc21 | < 30
COc1cc2c(cc1OC)C(c1cccc(C)c1)N(C(=O)c1sc3ccccc3c1Cl)CC2 (stereo not drawn) | 40
O=C(Nc1ccc(N2CCC(C(F)(F)F)CC2)nc1)c1ccc(OC(F)(F)F)cc1 | < 30
CC(C)(C)OC(=O)N1CCN(c2ccc(NS(=O)(=O)c3ccc(Cl)cc3)cn2)CC1 | < 30
CC(=O)OC[C@H](OC(C)=O)[C@@H](OC(C)=O)[C@@H](OC(C)=O)[C@H](OC(C)=O)c1nnn[nH]1 | < 30
Fc1ccc(C2CN3C(=N2)C=Cc2ccccc23)cc1 (stereo not drawn) | < 30
Cc1ccc(Oc2ccc(C(F)(F)F)cc2[N+](=O)[O-])c2c1CCC2 | < 30
CC(C)(C)c1cc(C(=O)/C(C#N)=N/Nc2cccc(Cl)c2)no1 | 70
CCCCCc1c(COC)c2ccc(O)cc2oc1=O | 50
CCOC(=O)c1cc2c(NC(=O)c3ccc(Cl)cc3)c(C(=O)OCC)sc2nc1C(F)(F)F | < 30
CCCCc1ccc(NC(=O)CSc2nc(-c3ccccc3)c(-c3ccccc3)o2)c(C)c1 | < 30
O=C(Oc1ccccc1)c1csc(C2COc3ccccc3O2)n1 (stereo not drawn) | < 30
Cc1ccc(S(=O)(=O)Nc2ccc(C)cc2NS(=O)(=O)c2ccc(Cl)cc2)cc1 | 40
COc1ccc(CCNc2ccc(C(F)(F)F)cc2[N+](=O)[O-])cc1OC | 30
CCOC(=O)C1=C(C)NC(=O)NC1c1cccc2ccccc12 (stereo not drawn) | < 30
CN1CCN(NC(NC(=O)c2cccnc2)(C(F)(F)F)C(F)(F)F)CC1 | < 30
NNC(=O)CSc1ccccc1[N+](=O)[O-] | 40
O=C1NC(=O)/C(=C/c2cccc(C#Cc3ccccc3)c2)S1 | 60
Cn1nc(-c2ccc(Cl)cc2)cc1NS(=O)(=O)c1cccc2nonc12 | < 30
O=S(=O)(CS(=O)(=O)Oc1ccc(Cl)cc1Cl)Oc1ccc(Cl)cc1Cl | < 30
CCOC(=O)c1c(C)csc1NC(=O)CSc1ccc(Cl)cc1 | 50

Compound | inhibition [%]
CCOC(=O)C(=CNNS(=O)(=O)c1cc(C(F)(F)F)cc(C(F)(F)F)c1)C(=O)OCC | 40
COc1ccc(Nc2cc(=O)n(-c3ccccc3)c3c2c(=O)n(C)c(=O)n3C)cc1 | 60
CCCCCCCSc1nnc[nH]1 | 70
O=C(/C=C/c1ccc(OC(F)(F)F)cc1)NCc1ccco1 | 60
N=C(NS(=O)(=O)c1cc(Cl)c(Oc2ccc([N+](=O)[O-])cc2Cl)c(Cl)c1)c1cccnc1 | 70
CN(C(=O)c1cnc(Oc2ccc(Cl)cc2)cc1C(F)(F)F)c1ccc(Cl)c(Cl)c1 | 60
O=C(c1cc(Br)cc2c1OCC2)N1CCOCC1 | < 30
O=C(O)C1Cc2ccccc2CN1 (stereo not drawn) | < 30
CSc1sc(Br)c2c1C(=O)CCC2 | < 30
O=C(Oc1ccc(Oc2ccccc2)cc1)N1CCC(OC(=O)n2ccnc2)CC1 | < 30
CN1c2ccccc2C(C)(C)C12C=Cc1c(ccc3ccccc13)O2 (stereo not drawn) | < 30
CS/C(=N/C(C)(C)C)Nc1ccccc1Cl | < 30
Nc1nc(-c2ccc(-c3ccccc3)cc2)cs1 | 40
CC(=O)Nc1ccc(S(=O)(=O)Nc2ccccc2C#N)cc1 | < 30
O=c1ccsn1-c1ccc(F)c(Cl)c1 | < 30
Cn1c(CN2C(=O)CSc3ccc(C(F)(F)F)cc32)nnc1SCC(=O)c1ccccc1 | < 30
O=C(CCSCc1ccc(Cl)cc1)Nc1ccc(Cl)cc1 | 60
CCOC(=O)C(=CNNC(=O)c1cccs1)C(=O)OCC | 60
CC1CCN(CC(=O)Nc2ccc(Cl)cc2C(=O)c2ccccc2Cl)CC1 | 70
O=C(/C(=N/Nc1ccc([N+](=O)[O-])cc1)C(=O)C(F)(F)F)c1cccs1 | 40
OC(CN1CCN(Cc2c(F)cccc2Cl)CC1)Cn1ccc2ccccc21 (stereo not drawn) | 50
Cc1cc(Sc2ncnc3cc(-c4ccc(F)cc4)sc23)c(C)cc1Cl | < 30

Compound | inhibition [%]
CCC1(c2cccc(OC)c2)CCCC(=O)NC1 (stereo not drawn) | < 30
CC(C)(C)S(=O)(=O)/C(C#N)=C/N/N=C/c1ccccc1Cl | < 30
O=C(NNC(=S)Nc1cc(Cl)ccc1Cl)C(O)(c1ccccc1)c1ccccc1 | 50
Cc1cc(C(=O)NNC(=O)Nc2ccc(Cl)cc2)no1 | 30
COC(=O)/C(=C/N(C)C)NC(=O)c1ccccc1 | < 30
O=S(=O)(Cc1nc2ccc(Cl)cc2s1)CS(=O)(=O)Nc1nc2ccc(Cl)cc2s1 | 70
Cc1cc(-c2nc(-c3ccc(C(C)(C)C)cc3)no2)no1 | 30
N#Cc1ccc(/C=N/Nc2ncc(-c3ccc4c(c3)OCCCO4)s2)cc1 | 70
COc1ccc(-c2[nH]ncc2CN2CCC(O)(c3ccc(Cl)cc3)CC2)cc1 | < 30
CC(C)(C)c1ccc(-c2noc(-c3ccc4c(c3)CCO4)n2)cc1 | 60
N#Cc1c(Cl)cccc1Oc1ccc(S(=O)(=O)Nc2ccccc2)cc1 | 40
COc1ccccc1C1CCN(C(=O)CSCc2cccc3ccccc23)CC1 | 80
CCCCCNC(=S)NNC(=O)OCC | 60
Cc1cc(O)nc2c1c(C)nn2C | < 30
CCOC(=O)c1c(-n2c(C)ccc2C)sc2c1CCCC2 | 70
O=C(Nc1cccc([N+](=O)[O-])c1)c1ccccc1O | 60
O=C(c1ccc(F)cc1)C1CCN(Cc2c[nH]c(-c3ccccc3)n2)CC1 | 30
c1ccc(/N=c2/[n-]n(-c3ccccc3)c[n+]2-c2ccccc2)cc1 | < 30
CC(C)NC(=O)n1nccc1-c1cc(-c2ccccc2)no1 | < 30
CC(=O)Nc1cc(C)ccc1C | < 30
COc1c(C(C)(C)C)cc(/N=C/c2ccccc2O)c(C)c1/N=C/c1ccccc1O | 60
Cc1cc(C)c(-n2nnnc2SCC(=O)Nc2ccccc2Cl)c(C)c1 | < 30

Compound | inhibition [%]
Cc1ccc(C(=O)Nc2ccc(Oc3ccc(C(C)(C)C)cc3)nc2)cc1 | 70
CC(=O)CC(O)c1ccncc1 (stereo not drawn) | < 30
CC(C)NC(=S)Nc1ccc2c(c1)S(=O)(=O)C=C2 | < 30
COc1ccc(NC(=S)Nc2ccc(C)c(NS(C)(=O)=O)c2)cc1 | 70
CSc1nc2c(c(/C=C/c3ccccc3)c1C#N)CCC2 | < 30
Cc1c(-c2nc(-c3ccc([N+](=O)[O-])o3)no2)n(C)oc1=O | < 30
O=C(CC12CC3CC(CC(C3)C1)C2)N1CCOCC1 | < 30
Cc1ccc2c(c1)CCCN2C(=S)Nc1cccc(Cl)c1 | < 30
O=C1/C(=C\c2cccs2)C(c2ccccc2)Oc2ccccc21 (stereo not drawn) | < 30
Oc1cc(C(F)(F)F)nc2ccc(F)cc12 | 80
O=C(Oc1ccc([N+](=O)[O-])cc1)c1c(Cl)cccc1Cl | 50
CCOC(=O)C(=CNc1cc(OC)cc(C(F)(F)F)c1)C(=O)OCC | 70
O=C(NNC(=S)Nc1cc(Cl)ccc1Cl)c1ccccc1Cl | < 30
Clc1cccc2nnsc12 | 30
O=c1c(-c2ccccc2)c(O)c2cccc3c4ccccc4n1c23 | 90
COC(=O)C1=CNC(CC(CC=O)c2ccc(F)cc2)=CC1c1ccc(N(C)C)cc1Cl (stereo not drawn) | < 30
CC(C)N(Cc1ccc(N(C)C)cc1)C(=O)c1sc2ccccc2c1Cl | 50
N#CCc1nn(-c2ccccc2)c(/N=C/c2cc(Cl)cc(Cl)c2O)c1C#N | 60
CC1(C)CC(=O)C=C(Sc2ccc(C#N)cc2[N+](=O)[O-])S1 | 50
CSc1scc(NC(=O)Nc2cccc(Cl)c2)c1S(=O)(=O)C(C)C | 60
Cc1cc(C(=O)Nc2ccc(C(C)(C)C)cc2)nn1Cc1c(Cl)cccc1Cl | 70
